Tests used:
[1] = test system: metrazol convulsive seizures; test: antimetrazol test (oral compound, protection from metrazol-induced convulsive seizures); assay type: in vivo; conditions: Mus musculus, 1 h, mice, one hour before metrazol s.c., Miller-Tainter method
Method: Periodically a metrazol standardization test precedes the assay to ascertain the quantity of metrazol, administered to control mice, sufficient to induce convulsive seizures in all animals. This is usually 125 mg/kg. In the antimetrazol test, a compound is administered orally to groups of four mice at various dose levels. One hour later, metrazol (at a dose level previously determined in the standardization test) is administered subcutaneously and the animals are observed for protection from convulsive seizures. Results are recorded as the number of animals protected against convulsions. The dose at which 50% of the animals are protected from convulsive seizures is expressed as the ED50. On active compounds, 8 animals employed per dose group. The ED50 is calculated by the Miller-Tainter method (Proc.Soc.Exp.Med. and Bio., 57, 261, 1944).

[2] = Toxicity, 24 hr. LD50 (PO); conditions: in vivo
[3] = target: ^3 H--Imipramine Binding; test: imipramine binding assay (3H-imipramine, rat cortex homogenate); set-up: species or system Sprague Dawley male rats; conditions: 15 minutes at room temperature, nonspecific binding by 10^-3 M imipramine
Method: IMIPRAMINE BINDING ASSAY METHOD
Sprague Dawley male rats (180 g) are decapitated and the brains immediately placed on ice. Cortex is dissected and homogenized in 8 volumes of 0.25M sucrose. Homogenate is centrifuged at 2900 rpm (1000×g) in a Sorvall RCLB centrifuge with a SM 24 head. Supernatant is decanted and polytronized for 60 seconds using a Brinkmann Polytron (Model PT-10) at setting 5. Dilutions of imipramine hydrochloride are made in ehtanol (1:5). Each assay sample contains: 1.8 ml of Krebs Ringer Buffer, 20 μl of imipramine or other drugs and 20 μl of ^3 H-imipramine ([…]). The ^3 H-imipramine is from New England Nuclear #NET 576, 20-40 curies/millimole. Imipramine (10^-3 M) is used to define nonspecific binding. Incubation is for 15 minutes at room temperature. Samples are then put in ice bath for 5 minutes. Each sample is filtered on a 45-place manifold (E. Sandbek Co., Airville, Pa.). Filter is a Whatman GF/B. Filters are placed in 13 ml of aquasol and shaken for 2 hours, then the radioactivity trapped on the filter is determined by liquid scintillation spectrometry.

Structure (SMILES)	ED50 [1] [mg/kg]	LD50 at 24 h [2] [mg/kg]	IC50 [3] [µM]
[O-][N+]1=C(c2ccccc2)c2cc(Cl)ccc2C=CC1 [8-Chloro-1-phenyl-3H-2-benzazepine-2-oxide]	5.2	> 1000	
Cl.Cl.NCC#CC1=CCN=C(c2ccccc2F)c2cc(Cl)ccc21 [8-Chloro-5-(1-amino-2-propyn-3-yl)-1-(2-fluorophenyl)-3H-2-benzazepine dihydrochloride]	3	500	20
Cl.Cl.NCC#CC1=CCN=C(c2ccccc2)c2cc(Cl)ccc21 [8-Chloro-5-(1-amino-2-propyn-3-yl)-1-phenyl-3H-2-benzazepine dihydrochloride]	32	500	11
CN(C)CC#CC1=CCN=C(c2ccccc2F)c2cc(Cl)ccc21.Cl.Cl [8-Chloro-5-(1-dimethylamino-2-propyn-3-yl)-1-(2-fluorophenyl)-3H-2-benzazepine dihydrochloride]	19	> 1000	
CN(C)CCCN1c2ccccc2CCc2ccccc21 [Imipramine, reference compound]			7.1

— patent US4549988A, “3H-2-Benzazepines” (Hoffmann-La Roche Inc., priority 1983, dated 1985)
